We go through twelve compounds from PMC5421785, “Citrullination only infrequently impacts peptide binding to HLA class II MHC” (PLoS ONE, 2017).

Read-outs that look alike come from different tables or passages of the source. Square brackets hold non-standard residues; d marks the D form. Peptide text beside a SMILES is read from it. Cit = NC(=O)NCCC[C@H](N)C(=O)O

One test has as its target T1, HLA-DRB1*04:01 (Homo sapiens, UniProt P01903+P01911, A100K/A169T/F76Y/I96L/K127E/L162R/M171V/N62H/P40V/Q125Y/R42H/S133A/S149N/S66Y/V115G/V209L/W38E).
T1 construct: EBV transformed homozygous cell lines were used as sources of MHC molecules; endogenous in cells; host or cells: EBV transformed homozygous cell lines
The test is described as follows: HLA class II peptide binding, inhibition of radiolabeled peptide binding to purified MHC. To be noted: read-out: DRB1*04:01 binding capacity, Cit peptide (IC50 nM).

In another test the target is T2, HLA-DRB1*01:01 (Homo sapiens, UniProt P01903+P01911, A100R/D57E/F55L/F60I/F76Y/I96L/L162R/M171V/P40L/Q125E/R42F/V115G/Y59C).
T2 construct: EBV transformed homozygous cell lines were used as sources of MHC molecules; endogenous in cells; host or cells: EBV transformed homozygous cell lines
The test is described as above. To be noted: read-out: DRB1*01:01 binding capacity, Cit peptide (IC50 nM).

Setting [1] is: citrullinated 15-mer (X), purified MHC, inhibition of radiolabeled peptide binding, dash = IC50 >40,000 nM.
[2] abbreviates: citrullinated 15-mer peptide (X = citrulline), purified HLA-DRB1*04:01.
The mark [3] stands for this setting: citrullinated 15-mer peptide (X = citrulline), purified HLA-DRB1*01:01.

Usually IC50 stands for the concentration needed to halve the response being measured. For `CC[C@H](C)[C@H](NC(=O)[C@H](CC(=O)O)NC(=O)[C@H](CCC(=O)O)NC(=O)[C@H](C)NC(=O)[C@H](CC(C)C)NC(=O)[C@H](CC(N)=O)NC(=O)[C@@H](N)CC(=O)O)C(=O)N[C@@H](CCSC)C(=O)N[C@@H](CCCNC(=N)N)C(=O)N[C@@H](CC(C)C)C(=O)N[C@@H](CCCNC(N)=O)C(=O)N[C@@H](CCC(=O)O)C(=O)N[C@@H](CCCCN)C(=O)N[C@@H](CC(C)C)C(=O)N[C@@H](CCC(N)=O)C(=O)O` [DNLAEDIMRLXEKLQ] (H-DNLAEDIMRL[Cit]EKLQ-OH), the half-maximal inhibitory concentration (IC50) at HLA-DRB1*04:01 (setting [1]) is greater than 40000 nM; on HLA-DRB1*01:01 (setting [1]) it was 1610 nM.
The matching figures for `CC[C@H](C)[C@H](NC(=O)[C@H](CC(=O)O)NC(=O)[C@H](CCC(=O)O)NC(=O)[C@H](C)NC(=O)[C@H](CC(C)C)NC(=O)[C@H](CC(N)=O)NC(=O)[C@@H](N)CC(=O)O)C(=O)N[C@@H](CCSC)C(=O)N[C@@H](CCCNC(N)=O)C(=O)N[C@@H](CC(C)C)C(=O)N[C@@H](CCCNC(=N)N)C(=O)N[C@@H](CCC(=O)O)C(=O)N[C@@H](CCCCN)C(=O)N[C@@H](CC(C)C)C(=O)N[C@@H](CCC(N)=O)C(=O)O` [DNLAEDIMXLREKLQ] (H-DNLAEDIM[Cit]LREKLQ-OH): greater than 40000 nM and 4690 nM.
The matching figures for `CC(C)C[C@H](NC(=O)[C@H](CC(N)=O)NC(=O)[C@H](CCCCN)NC(=O)[C@H](C)NC(=O)[C@H](C)NC(=O)[C@@H](NC(=O)[C@H](CO)NC(=O)[C@H](CCC(=O)O)NC(=O)[C@H](Cc1ccc(O)cc1)NC(=O)[C@H](CCC(N)=O)NC(=O)[C@H](CCC(N)=O)NC(=O)[C@H](CCCNC(N)=O)NC(=O)[C@@H](NC(=O)[C@@H](N)CC(=O)O)C(C)C)C(C)C)C(=O)N[C@@H](CCC(N)=O)C(=O)O` [DVXQQYESVAAKNLQ] (H-DV[Cit]QQYESVAAKNLQ-OH): 7760 nM and 19 nM.
As for `CC(C)[C@H](NC(=O)[C@H](CC(=O)O)NC(=O)CNC(=O)[C@H](CCCNC(N)=O)NC(=O)[C@@H](N)CC(=O)O)C(=O)NCC(=O)N[C@@H](CCC(=O)O)C(=O)N[C@@H](CCCCN)C(=O)NCC(=O)N1CCC[C@H]1C(=O)N[C@@H](CCC(=O)O)C(=O)NCC(=O)N[C@@H](C)C(=O)N1CCC[C@H]1C(=O)NCC(=O)O` [DXGDVGEKGPEGAPG] (H-D[Cit]GDVGEKGPEGAPG-OH), the 50% inhibitory concentration (IC50) is 33300 nM at HLA-DRB1*04:01 (setting [2]) and 2270 nM on HLA-DRB1*01:01 (setting [3]).
Take `CSCC[C@H](NC(=O)[C@H](CCC(=O)O)NC(=O)[C@H](CCC(=O)O)NC(=O)[C@@H](N)CCC(=O)O)C(=O)N[C@@H](CCCNC(=N)N)C(=O)N[C@@H](CCC(=O)O)C(=O)N[C@@H](CC(C)C)C(=O)N[C@@H](CCCNC(=N)N)C(=O)N[C@@H](CCCNC(N)=O)C(=O)N[C@@H](CCC(N)=O)C(=O)N[C@H](C(=O)N[C@@H](CC(=O)O)C(=O)N[C@@H](CCC(N)=O)C(=O)N[C@@H](CC(C)C)C(=O)N[C@H](C(=O)O)[C@@H](C)O)C(C)C` [EEEMRELRXQVDQLT] (H-EEEMRELR[Cit]QVDQLT-OH): the IC50 on HLA-DRB1*04:01 (setting [1]) is 1280 nM; at HLA-DRB1*01:01 (setting [1]), 686 nM.
Take `CSCC[C@H](NC(=O)[C@H](CCC(=O)O)NC(=O)[C@H](CCC(=O)O)NC(=O)[C@@H](N)CCC(=O)O)C(=O)N[C@@H](CCCNC(=N)N)C(=O)N[C@@H](CCC(=O)O)C(=O)N[C@@H](CC(C)C)C(=O)N[C@@H](CCCNC(N)=O)C(=O)N[C@@H](CCCNC(=N)N)C(=O)N[C@@H](CCC(N)=O)C(=O)N[C@H](C(=O)N[C@@H](CC(=O)O)C(=O)N[C@@H](CCC(N)=O)C(=O)N[C@@H](CC(C)C)C(=O)N[C@H](C(=O)O)[C@@H](C)O)C(C)C` [EEEMRELXRQVDQLT] (H-EEEMREL[Cit]RQVDQLT-OH): the half-maximal inhibitory concentration (IC50) at HLA-DRB1*04:01 (setting [1]) was found to be 4740 nM; at HLA-DRB1*01:01 (setting [1]), 1490 nM.
The matching figures for `CSCC[C@H](NC(=O)[C@H](CCC(=O)O)NC(=O)[C@H](CCC(=O)O)NC(=O)[C@@H](N)CCC(=O)O)C(=O)N[C@@H](CCCNC(N)=O)C(=O)N[C@@H](CCC(=O)O)C(=O)N[C@@H](CC(C)C)C(=O)N[C@@H](CCCNC(=N)N)C(=O)N[C@@H](CCCNC(=N)N)C(=O)N[C@@H](CCC(N)=O)C(=O)N[C@H](C(=O)N[C@@H](CC(=O)O)C(=O)N[C@@H](CCC(N)=O)C(=O)N[C@@H](CC(C)C)C(=O)N[C@H](C(=O)O)[C@@H](C)O)C(C)C` [EEEMXELRRQVDQLT] (H-EEEM[Cit]ELRRQVDQLT-OH): 6570 nM and 1250 nM.
Regarding `CSCC[C@H](NC(=O)[C@H](CCC(=O)O)NC(=O)[C@@H](N)CCC(=O)O)C(=O)N[C@@H](CC(C)C)C(=O)N[C@@H](CCC(N)=O)C(=O)N[C@@H](CCCNC(N)=O)C(=O)N[C@@H](CCC(=O)O)C(=O)N[C@@H](CCC(=O)O)C(=O)N[C@@H](C)C(=O)N[C@@H](CCC(=O)O)C(=O)N[C@@H](CC(N)=O)C(=O)N[C@H](C(=O)N[C@@H](CC(C)C)C(=O)N[C@@H](CCC(N)=O)C(=O)N[C@@H](CO)C(=O)O)[C@@H](C)O` [EEMLQXEEAENTLQS] (H-EEMLQ[Cit]EEAENTLQS-OH), the values for the half-inhibitory concentration (IC50) at HLA-DRB1*04:01 (setting [1]) and at HLA-DRB1*01:01 (setting [1]) were 14000 nM and 869 nM, respectively.
With `CC[C@H](C)[C@H](NC(=O)[C@@H](N)CCC(=O)O)C(=O)N[C@@H](C)C(=O)N[C@H](C(=O)N[C@@H](Cc1ccc(O)cc1)C(=O)N[C@@H](CCCNC(=N)N)C(=O)N[C@@H](CCCCN)C(=O)N[C@@H](CC(C)C)C(=O)N[C@@H](CC(C)C)C(=O)N[C@@H](CCC(=O)O)C(=O)NCC(=O)N[C@@H](CCC(=O)O)C(=O)N[C@@H](CCC(=O)O)C(=O)N[C@@H](CO)C(=O)N[C@@H](CCCNC(N)=O)C(=O)O)[C@@H](C)O` [EIATYRKLLEGEESX] (H-EIATYRKLLEGEES[Cit]-OH), the IC50 on HLA-DRB1*04:01 (setting [2]) was determined as 4300 nM; on HLA-DRB1*01:01 (setting [3]), 470 nM.
With `CC[C@H](C)[C@H](NC(=O)[C@@H](N)CCC(=O)O)C(=O)N[C@@H](C)C(=O)N[C@H](C(=O)N[C@@H](Cc1ccc(O)cc1)C(=O)N[C@@H](CCCNC(N)=O)C(=O)N[C@@H](CCCCN)C(=O)N[C@@H](CC(C)C)C(=O)N[C@@H](CC(C)C)C(=O)N[C@@H](CCC(=O)O)C(=O)NCC(=O)N[C@@H](CCC(=O)O)C(=O)N[C@@H](CCC(=O)O)C(=O)N[C@@H](CO)C(=O)N[C@@H](CCCNC(=N)N)C(=O)O)[C@@H](C)O` [EIATYXKLLEGEESR] (H-EIATY[Cit]KLLEGEESR-OH), the IC50 was determined as 3810 nM on HLA-DRB1*04:01 (setting [2]) and 360 nM on HLA-DRB1*01:01 (setting [3]).
On to `CC[C@H](C)[C@H](NC(=O)[C@H](Cc1ccc(O)cc1)NC(=O)[C@H](CC(N)=O)NC(=O)[C@H](C)NC(=O)[C@H](Cc1ccccc1)NC(=O)[C@H](CCCNC(N)=O)NC(=O)[C@H](CC(=O)O)NC(=O)[C@H](CC(N)=O)NC(=O)[C@H](CC(C)C)NC(=O)[C@H](CCC(=O)O)NC(=O)[C@H](CCC(N)=O)NC(=O)[C@H](CC(C)C)NC(=O)[C@@H](N)CCC(=O)O)C(=O)N[C@@H](CC(=O)O)C(=O)N[C@@H](CCCCN)C(=O)O` [ELQELNDXFANYIDK], for which the IC50 was determined as 26700 nM on HLA-DRB1*04:01 (setting [1]) and 295 nM on HLA-DRB1*01:01 (setting [1]).
`CC(C)C[C@H](NC(=O)[C@H](CCC(N)=O)NC(=O)[C@H](CC(=O)O)NC(=O)[C@@H](NC(=O)[C@H](CCC(N)=O)NC(=O)[C@H](CCCNC(=N)N)NC(=O)[C@H](CCCNC(=N)N)NC(=O)[C@H](CC(C)C)NC(=O)[C@@H](N)CCC(=O)O)C(C)C)C(=O)N[C@H](C(=O)N[C@@H](CC(N)=O)C(=O)N[C@@H](CC(=O)O)C(=O)N[C@@H](CCCCN)C(=O)N[C@@H](C)C(=O)N[C@@H](CCCNC(N)=O)C(=O)O)[C@@H](C)O` [ELRRQVDQLTNDKAX] (H-ELRRQVDQLTNDKA[Cit]-OH): the IC50 was found to be 8090 nM on HLA-DRB1*04:01 (setting [1]) and 1160 nM at HLA-DRB1*01:01 (setting [1]).
